Measured values as given in patent US20150306108A1, “COMPOSITIONS OF ALDH1A1 INHIBITORS AND METHODS OF USE IN TREATING CANCER” (Indiana University Research & Technology Corporation, priority 2014, published 2015).

What was measured:
IGROV1 cells = assay: Cell viability by trypan blue exclusion; assay type: cell-based, human; settings: 7 days
Method: Cell viability was measured by the trypan blue (ThermoScientific) exclusion test. Cell proliferation was quantified by the MTT assay. Spheroids were counted after centrifugation at 300×g for 5 minutes. All assays were performed in four replicates. Data are presented as means±SEM.

ALDH4A1 = molecular target: T1, ALDH4A1 (Homo sapiens, UniProt P30038); assay: ALDH4A1 selectivity assay; assay type: biochemical; settings: 20 μM compound
T1 construct: The full length cDNA for human ALDH4A1 and ALDH5A1 were generously provided by Dania Mochly-Rosen; inferred from nickel-NTA purification and the pET-28a plasmid; made in house; host or cells: bacterial host inferred from the pET-28a plasmid
T1 sequence (P30038 25-563): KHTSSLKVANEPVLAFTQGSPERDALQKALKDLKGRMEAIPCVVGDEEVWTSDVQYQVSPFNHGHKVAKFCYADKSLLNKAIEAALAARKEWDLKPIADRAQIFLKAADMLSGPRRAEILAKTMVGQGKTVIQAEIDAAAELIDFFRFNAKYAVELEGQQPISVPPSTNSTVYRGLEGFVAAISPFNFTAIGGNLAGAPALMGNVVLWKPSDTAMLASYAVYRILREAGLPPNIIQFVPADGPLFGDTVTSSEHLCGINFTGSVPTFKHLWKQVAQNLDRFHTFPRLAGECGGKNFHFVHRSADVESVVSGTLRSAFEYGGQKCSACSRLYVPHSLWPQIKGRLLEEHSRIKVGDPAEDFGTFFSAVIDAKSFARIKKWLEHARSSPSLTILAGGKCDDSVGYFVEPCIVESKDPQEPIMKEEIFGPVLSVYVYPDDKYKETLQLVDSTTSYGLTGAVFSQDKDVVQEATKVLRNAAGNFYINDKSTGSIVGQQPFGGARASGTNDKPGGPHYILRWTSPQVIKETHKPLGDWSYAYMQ
Source text: (§1) ALDH1A1, ALDH1A2, ALDH1A3, ALDH1B1, ALDH2, and ALDH3A1 were produced and purified as previously described. The ALDH1A1 protein used for the ALDH1A1-CM026 crystal contained an Asn-to-Ser SNP at residue 121. Unless where noted otherwise, ALDH1A1 WT protein was used for all aldehyde oxidation assays and for the ALDH1A1-CM053 structure. The full length cDNA for human ALDH4A1 and ALDH5A1 were generously provided by Dania Mochly-Rosen. ALDH4A1 was subcloned into the pET-28a expression plasmid and ALDH5A1 was in pTrcHis-Topo. The carboxyl terminal ALDH domain of rat ALDH1L1 was generously provided by Sergey Krupenko in the pRSET expression plasmid. ALDH1L1, ALDH4A1, and ALDH5A1 were expressed and purified as previously described for ALDH3A1^36 with the following modifications: 1) for ALDH1L1 and ALDH5A1 the medium contained 100 μg/mL ampicillin, 2) cells were lysed via 3 passages through a microfluidizer (DivTech Equipment), and 3) a single passage on a nickel-NTA column was used for purification, without the second Q-sepharose column used to purify ALDH3A1. Purified enzymes used for kinetics were stored at −80° C. ALDH1A1 used for crystallization was stored at −20° C. in a 50% (v/v) solution with glycerol and dialyzed against 10 mM Na^+-ACES pH 6.6 and 1 mM dithiothreitol at 4° C.

ALDH5A1 = molecular target: T2, ALDH5A1 (Homo sapiens, UniProt P51649); assay: ALDH5A1 selectivity assay; assay type: biochemical; settings: 20 μM compound
T2 construct: The full length cDNA for human ALDH4A1 and ALDH5A1 were generously provided by Dania Mochly-Rosen; inferred from nickel-NTA purification and the pTrcHis-Topo plasmid; made in house; host or cells: bacterial host inferred from the pTrcHis-Topo plasmid and ampicillin medium
T2 sequence (P51649 48-535): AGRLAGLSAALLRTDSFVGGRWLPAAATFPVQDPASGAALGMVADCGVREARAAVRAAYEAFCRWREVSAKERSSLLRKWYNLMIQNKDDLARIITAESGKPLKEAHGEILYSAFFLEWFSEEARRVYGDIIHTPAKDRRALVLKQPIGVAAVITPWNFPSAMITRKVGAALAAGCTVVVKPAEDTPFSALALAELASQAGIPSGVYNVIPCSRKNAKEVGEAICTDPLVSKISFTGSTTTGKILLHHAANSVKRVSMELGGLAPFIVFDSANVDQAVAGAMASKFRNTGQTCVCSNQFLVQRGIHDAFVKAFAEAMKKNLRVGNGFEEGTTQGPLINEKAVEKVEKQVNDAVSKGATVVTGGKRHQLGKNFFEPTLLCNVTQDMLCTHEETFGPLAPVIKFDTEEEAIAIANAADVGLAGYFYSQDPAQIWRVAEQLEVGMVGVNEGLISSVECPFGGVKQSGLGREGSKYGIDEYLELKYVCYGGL
Source text: as §1

[1] = molecular target: T3, carboxyl-terminal ALDH domain of rat ALDH1L1 (Rattus norvegicus, UniProt P28037); assay: ALDH1L1 selectivity assay; assay type: biochemical; settings: 20 μM compound
T3 construct: The carboxyl terminal ALDH domain of rat ALDH1L1 was generously provided by Sergey Krupenko in the pRSET expression plasmid; inferred from nickel-NTA purification and the pRSET plasmid; made in house; host or cells: bacterial host inferred from the pRSET plasmid and ampicillin medium
T3 sequence (P28037 417-902 limits assumed): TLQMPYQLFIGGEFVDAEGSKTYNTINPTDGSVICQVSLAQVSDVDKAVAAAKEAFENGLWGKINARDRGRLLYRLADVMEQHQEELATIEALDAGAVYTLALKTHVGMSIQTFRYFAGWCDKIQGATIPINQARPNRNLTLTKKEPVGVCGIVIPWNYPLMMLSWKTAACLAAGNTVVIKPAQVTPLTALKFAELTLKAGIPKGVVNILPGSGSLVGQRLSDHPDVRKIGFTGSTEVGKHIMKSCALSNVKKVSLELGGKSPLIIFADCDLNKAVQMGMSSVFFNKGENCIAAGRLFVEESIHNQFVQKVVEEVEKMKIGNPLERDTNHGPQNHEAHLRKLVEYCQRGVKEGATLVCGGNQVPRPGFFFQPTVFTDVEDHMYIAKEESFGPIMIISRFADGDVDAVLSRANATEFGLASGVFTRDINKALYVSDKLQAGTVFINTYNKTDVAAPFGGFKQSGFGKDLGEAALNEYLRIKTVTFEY
Source text: as §1

Row | Compound | percentage of viable cells (IGROV1 cells; 50 μM, trypan blue exclusion) | concentrations giving dose-dependent decrease in cell viability (IGROV1 cells; 1, 5, 10 and 50 μM) | effect on ALDH4A1 (ALDH4A1) | effect on ALDH5A1 (ALDH5A1) | effect on carboxyl-terminal ALDH domain of rat ALDH1L1 [1]
1 | CCOC(=O)CSc1nc2c(sc3ccccc32)c(=O)n1CCCN1CCCC1 [CM037, ethyl-2-((4-oxo-3-(3-(pryrrolidin-1-yl)propyl)-3,4-dihydrobenzo[4,5]thioeno[3,2-d]pyrimidin-2-yl)thio)acetate] | significantly decreased | greater than 10 μM |  |  | 
2 | CC(C)CCn1c(CN2CCN(C(=O)c3ccco3)CC2)nc2c1c(=O)n(C)c(=O)n2C [CM026] |  |  | no effect | no effect | no effect
